One data set has as its target SRI (Homo sapiens, UniProt P31645). Description: BBB/Neurotransmitter Binding: SRI.
The next data set deals with NRI (Homo sapiens, UniProt P23975). Format: binding.
The test system of data set [1] is Huh7 cells expressing a subgenomic RNA replicon of Con1 (genotype 1b) sequence origin.
The nature of a further data set: in vitro. The settings on record: human.
In data set [2] the test system is Huh7 cells expressing a subgenomic RNA replicon of Con1 (genotype 1b) sequence origin. Kind of data set: microbe, parasite or virus in culture. The conditions noted are these: Hepatitis C virus.
The target in the next data set is T1, HER1-2 (Homo sapiens, UniProt P04626).
T1 construct: the other entry of the earlier key: EGFR (P00533, Epidermal growth factor receptor)
T1 sequence (P04626 with tags, fused parts or gaps): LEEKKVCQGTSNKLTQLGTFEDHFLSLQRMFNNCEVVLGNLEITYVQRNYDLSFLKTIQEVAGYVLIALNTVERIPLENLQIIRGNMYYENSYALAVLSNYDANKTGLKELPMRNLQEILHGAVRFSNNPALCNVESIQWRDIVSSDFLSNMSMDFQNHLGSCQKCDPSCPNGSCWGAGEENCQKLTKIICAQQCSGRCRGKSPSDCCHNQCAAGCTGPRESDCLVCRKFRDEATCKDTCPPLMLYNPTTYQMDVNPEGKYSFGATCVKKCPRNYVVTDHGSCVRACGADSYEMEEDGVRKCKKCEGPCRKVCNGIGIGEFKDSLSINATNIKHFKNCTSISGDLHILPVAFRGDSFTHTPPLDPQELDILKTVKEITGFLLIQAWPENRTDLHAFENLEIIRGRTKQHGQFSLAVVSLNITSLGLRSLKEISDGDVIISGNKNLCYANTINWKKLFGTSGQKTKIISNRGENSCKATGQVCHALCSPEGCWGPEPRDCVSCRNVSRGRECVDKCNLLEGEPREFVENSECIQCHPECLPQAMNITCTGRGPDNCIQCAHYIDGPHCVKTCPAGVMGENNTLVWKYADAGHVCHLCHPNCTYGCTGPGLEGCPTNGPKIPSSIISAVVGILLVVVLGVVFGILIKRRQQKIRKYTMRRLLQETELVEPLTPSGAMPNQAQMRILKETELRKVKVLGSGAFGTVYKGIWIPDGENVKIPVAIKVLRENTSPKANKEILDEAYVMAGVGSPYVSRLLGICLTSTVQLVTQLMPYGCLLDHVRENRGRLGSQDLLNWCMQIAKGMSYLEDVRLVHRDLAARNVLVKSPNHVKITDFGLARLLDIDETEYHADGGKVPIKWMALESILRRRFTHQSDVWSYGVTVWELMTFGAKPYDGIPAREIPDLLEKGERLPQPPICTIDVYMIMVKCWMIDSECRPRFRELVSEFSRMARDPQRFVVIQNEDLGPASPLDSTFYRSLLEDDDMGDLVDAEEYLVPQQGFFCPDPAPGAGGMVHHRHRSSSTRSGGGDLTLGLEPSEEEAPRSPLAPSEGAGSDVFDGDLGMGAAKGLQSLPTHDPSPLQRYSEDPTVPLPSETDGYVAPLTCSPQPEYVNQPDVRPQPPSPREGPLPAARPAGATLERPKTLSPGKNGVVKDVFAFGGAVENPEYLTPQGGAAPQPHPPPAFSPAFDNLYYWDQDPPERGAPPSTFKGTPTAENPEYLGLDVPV
The conditions noted are these: selective HER1 inhibitor (vs. HER1-2); cited from earlier work.

For data set [3] the following is noted: general description; cited from earlier work.
The conditions of data set [4]: in vivo.
In the next data set the test system is influenza A/PR/8/34. Further details: species or system C57/BL6 mice. The conditions noted are these: mouse, in vivo.
The mark [5] stands for this setting: Huh-7, read-out: IC50 (uM) [SG].
Where [6] appears, read: Huh-7, read-out: Max Effect@CC30 (inhibition).
Setting [7] is: Huh-7, read-out: Max effect @CC30 (%).
Setting [8] is: GETYPE1B, Huh-7, 72 h, read-out: Max Effect @CC30 (inhibition).
The mark [9] stands for this setting: Huh-7, read-out: Max Effect @CC30 (inhibition).

Values joined by “and” are separate entries in the source; they are usually repeats but may differ in a detail not shown here. Identical values can stand only once. “Also recorded” adds a separate entry of the source. Like-named read-outs stand apart in the source and are kept apart here.

NRI, sequence (P23975 whole entry): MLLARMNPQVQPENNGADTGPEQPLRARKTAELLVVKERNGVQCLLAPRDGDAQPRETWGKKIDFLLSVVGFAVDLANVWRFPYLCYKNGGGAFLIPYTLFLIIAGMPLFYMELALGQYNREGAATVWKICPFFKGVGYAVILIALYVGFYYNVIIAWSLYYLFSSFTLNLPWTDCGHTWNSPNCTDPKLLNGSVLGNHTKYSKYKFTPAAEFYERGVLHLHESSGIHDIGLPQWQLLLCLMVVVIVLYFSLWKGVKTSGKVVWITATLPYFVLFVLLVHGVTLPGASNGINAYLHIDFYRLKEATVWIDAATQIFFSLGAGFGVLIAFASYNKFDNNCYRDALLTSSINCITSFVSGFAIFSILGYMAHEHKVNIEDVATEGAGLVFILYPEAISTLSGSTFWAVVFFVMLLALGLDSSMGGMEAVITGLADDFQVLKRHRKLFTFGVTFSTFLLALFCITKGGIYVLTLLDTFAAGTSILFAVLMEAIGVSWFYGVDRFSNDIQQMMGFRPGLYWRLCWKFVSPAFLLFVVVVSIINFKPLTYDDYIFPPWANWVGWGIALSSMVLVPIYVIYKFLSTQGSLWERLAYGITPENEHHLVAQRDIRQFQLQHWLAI
SRI, sequence (P31645 whole entry): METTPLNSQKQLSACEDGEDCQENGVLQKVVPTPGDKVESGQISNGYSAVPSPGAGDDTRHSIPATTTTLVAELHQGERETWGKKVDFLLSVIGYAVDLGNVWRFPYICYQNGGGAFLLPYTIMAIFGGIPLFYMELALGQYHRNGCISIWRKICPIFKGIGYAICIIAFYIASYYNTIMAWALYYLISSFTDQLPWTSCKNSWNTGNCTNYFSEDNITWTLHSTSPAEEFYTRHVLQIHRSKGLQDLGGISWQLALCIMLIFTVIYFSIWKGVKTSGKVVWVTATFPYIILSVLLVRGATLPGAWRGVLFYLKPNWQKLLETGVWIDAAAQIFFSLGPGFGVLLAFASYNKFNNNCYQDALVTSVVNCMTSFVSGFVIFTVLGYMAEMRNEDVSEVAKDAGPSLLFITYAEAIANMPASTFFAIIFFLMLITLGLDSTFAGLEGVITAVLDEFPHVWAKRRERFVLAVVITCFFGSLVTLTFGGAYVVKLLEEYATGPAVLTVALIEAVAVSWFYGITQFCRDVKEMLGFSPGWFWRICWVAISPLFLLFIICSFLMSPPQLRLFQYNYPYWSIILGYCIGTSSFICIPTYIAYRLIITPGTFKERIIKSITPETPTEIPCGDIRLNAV

As usually defined, the IC90 is the concentration at which the effect reaches the 90% level. A low value points to greater potency. By IC50 is commonly meant the concentration that inhibits the measured activity by half. Consider `CN[C@H]1CC[C@@H](c2ccc(Cl)c(Cl)c2)c2ccc(C[S+](C)[O-])cc21` (stereo partly drawn) [(1S,4S)-4-(3,4-dichlorophenyl)-N-methyl-7-(methylsulfinylmethyl)-1,2,3,4-tetrahydronaphthalen-1-amine], for which the “BBB/Neurotransmitter Binding (nM) SRI” value on SRI came out at 340 nM. The “BBB/Neurotransmitter Binding (nM) NRI” value on NRI is given as 450 nM. The IC90 was 5.17 µM and 5.15 µM in data set [1]; 5.13 ± 0.16 µM in data set [2] (Huh-7). Besides, the IC50 in data set [1] (read-out: IC50 (uM) [SG]) worked out at 1.55 µM; in data set [2] (setting [5]), 1.34 ± 0.26 µM; in [2] (Huh-7, read-out: SA IC50 (uM)), 1.46 ± 0.23 µM. Further, the values for the CC50 with Huh7 parental cells (human) and in “in vitro” (CC50 (uM) [SG]) were 15.3 µM and 14.8 ± 0.97 µM, respectively. Besides, the values for the Emax in [2] (setting [6]) and in [2] (setting [7]) were 96.5 ± 2.6% and 97.9 ± 1.1%, respectively.
Regarding `N#C/C(=C\c1ccc(O)c(O)c1)C(=O)Nc1ccccc1` [AG-494, AG 494, reference compound], the IC50 in data set [1] is 3.45 µM; on HER1-2, 45 µM.
In data set [1], `CC(=O)OC[C@H]1O[C@@H]([S-])[C@H](OC(C)=O)[C@@H](OC(C)=O)[C@@H]1OC(C)=O.CCP(CC)CC.[Au+]` [Auranofin, reference compound] displayed an IC50 of 1.07 µM. For the same molecule, the “solubility in water (in words)” value in data set [3] is “insoluble in water”.
On to `CNCc1cc(S(N)(=O)=O)ccc1Oc1ccc(SC)c(C)c1` [Compound 48, 4-(3-methyl-4-(methylthio)phenoxy)-3-((methylamino)methyl)benzenesulfonamide], for which the IC90 in [1] was 8.26 ± 2.49 µM; in data set [2] (Huh-7) it was 10 µM. The IC50 worked out at 2.26 ± 0.11 µM in data set [1] (read-out: IC50 (uM) [SG]); 2.33 µM in [2] (Huh-7); 2.33 µM in [2] (setting [5]); 2.33 µM in data set [2] (Huh-7, read-out: SA IC50 (uM)). The CC50 in the data set on Huh7 parental cells (human) is greater than 50 µM; in the data set “in vitro” (CC50 (uM)), 39.6 µM; in the data set “in vitro” (CC50 (uM) [SG]), 39.6 µM. Moreover, the Emax in [2] (setting [6]) and in data set [2] (setting [7]) was 95.5% in each case.
`CN[C@H]1CC[C@@H](c2ccc(Cl)c(Cl)c2)c2ccc(NS(C)(=O)=O)cc21` [Sertraline (Reverse) Methanesulfonamide, N-((5S,8S)-5-(3,4-dichlorophenyl)-8-(methylamino)-5,6,7,8-tetrahydronaphthalen-2-yl)methanesulfonamide]: the “BBB/Neurotransmitter Binding (nM) NRI” value on NRI stood at 60 nM. In addition, the CC50 turned out to be 12.9 µM in the data set “in vitro” (CC50), 12.9 ± 0.3 µM in “in vitro” (CC50 (uM)) and 12.9 ± 0.3 µM in “in vitro” (CC50 (uM) [SG]). Further, in data set [4], the “Pharmcokinetics: Brain levels compared with sertraline” value is reported as “lower sertraline”. Also, the “Pharmcokinetics: Liver levels compared with sertraline” value in data set [4] is “much greater”. In [4], the “Pharmcokinetics: overall assessment” value is given as “Optimal PK, Liver levels”. Further, the Emax stood at 83.3 ± 20.2% in data set [2] (setting [8]); 95% in [2] (Huh-7, 48 h, read-out: Max Effect); 83.3 ± 20.2% in data set [2] (setting [6]); 83.3 ± 20.2% in data set [2] (setting [7]). Besides, the half-inhibitory concentration (IC50) stood at 6.43 µM in [2] (Huh-7, 48 h); 3.99 ± 0.8 µM in [2] (Huh-7, 72 h); 3.99 ± 0.8 µM in data set [2] (setting [5]); 3.99 ± 0.8 µM in data set [2] (Huh-7, read-out: SA IC50 (uM)).
With `CN[C@H]1CC[C@@H](c2ccc(Cl)c(Cl)c2)c2ccc(CN)cc21` [Sertraline A-Ring Methanamine, (1S,4S)-7-(aminomethyl)-4-(3,4-dichlorophenyl)-N-methyl-1,2,3,4-tetrahydronaphthalen-1-amine], the IC50 in data set [1] (read-out: IC50 (uM) [SG]) came to 1.67 µM; in data set [2] (Huh-7), 1.6 µM; in [2] (setting [5]) it was 1.59 µM; in data set [2] (Huh-7, read-out: SA IC50 (uM)), 1.59 µM. Further, the CC50 came out at 3.68 µM in the data set with Huh7 parental cells (human), 3.7 µM in “in vitro” (CC50 (uM)) and 3.7 µM in “in vitro” (CC50 (uM) [SG]). It took 3.28 µM to reach the 90% level in data set [2] (Huh-7) (IC90). Further, the Emax in data set [2] (setting [9]), in data set [2] (setting [6]) and in data set [2] (setting [7]) was 85.9% each time.
Turning to `CN[C@H]1CC[C@@H](c2ccc(Cl)c(Cl)c2)c2ccc(C(N)=O)cc21` [Sertraline A-ring carboxamide], on NRI, the “BBB/Neurotransmitter Binding (nM) NRI” value was 410 nM. In [1], it took 5.4 ± 1.81 µM to reach the 90% level (IC90), the “Max Effect@CC30 (inhibition)” value was 94.5 ± 0.7% and the “Max effect @CC30 (%)” value amounted to 94.5 ± 0.7%. Further, the IC50 in data set [1] (read-out: IC50 (uM) [SG]) amounted to 1.8 ± 0.18 µM. In addition, in data set [1] (read-out: SA IC50), the half-inhibitory concentration (IC50) is 1.8 µM. For the same molecule, the CC50 with Huh7 parental cells amounted to 16.2 ± 0.57 µM. Also, in [4], the “Pharmcokinetics: Brain levels compared with sertraline” value is “IC50, Brain levels lower” and the “Pharmcokinetics: overall assessment” value was “Optimal PK. Liver”.
Regarding `CN[C@H]1CC[C@@H](c2ccc(Cl)c(Cl)c2)c2ccccc21` [Sertraline, sertraline, reference compound], in the data set with influenza A/PR/8/34, the “effect on survival rate (in words)” value is “dose dependant increase in survival rate; also recorded: improves survival rate”. Further, the IC90 in data set [1] came out at 9.65 µM; in [2] (Huh-7), 11.3 µM. Also, the “Max Effect@CC30 (inhibition)” value in data set [1] amounted to 75.12%. Besides, the CC50 in the data set with Huh7 parental cells (human) was determined as 7.7 µM; in “in vitro” (CC50 (uM)), 7.98 µM. Besides, the figures for the Emax in data set [2] (setting [9]) and in [2] (setting [7]) were 68.5% and 62.6 ± 21.5%, respectively.
Turning to `CSc1ccc(Oc2ccc(S(N)(=O)=O)cc2CN(C)C)cc1C` [UK-416244, 3-((dimethylamino)methyl)-4-(3-methyl-4-(methylthio)phenoxy)benzenesulfonamide, reference compound], on SRI (Table 19), the “BBB/Neurotransmitter Binding (nM) SRI” value was less than 5 nM. For the same molecule, the IC90 in data set [1] amounted to 6.55 µM; in data set [2] (Huh-7) it was 6.17 ± 3.23 µM; in data set [2] (Huh-7, 72 h), 9.86 µM. The IC50 was found to be 1.74 µM in data set [1] (read-out: IC50 (uM) [SG]); 1.41 µM in data set [2] (Huh-7); 1.63 µM in data set [2] (Huh-7, 72 h); 1.41 ± 0.2 µM in data set [2] (setting [5]); 1.41 ± 0.2 µM in data set [2] (Huh-7, read-out: SA IC50 (uM)). Also, the values for the CC50 in “in vitro” (CC50 (uM)) and in “in vitro” (CC50 (uM) [SG]) were 327 µM and greater than 50 µM, respectively. In data set [4], the “Pharmcokinetics: Brain levels compared with sertraline” value is “lower than sertraline”. The “Pharmcokinetics: Liver levels, fold over IC50” value in data set [4] is “sertraline, 511 fold over”. Moreover, the “Pharmcokinetics: overall assessment” value in data set [4] is on record as “Optimal PK, Liver”. Further, the Emax in [2] (setting [8]) worked out at 97%; in data set [2] (setting [6]), 97.2 ± 1.4%; in [2] (setting [7]), 97.2 ± 1.4%.

These data come from patent US20100009970A1, “COMPOSITIONS AND METHODS FOR TREATMENT OF VIRAL DISEASES” (Combinatorx (Singapore) Pte. Ltd., priority 2008, published 2010).
